Consider 1 compound from paper PMC8538783, “Green Oxidation of Amines by a Novel Cold-Adapted Monoamine Oxidase MAO P3 from Psychrophilic Fungi Pseudogymnoascus sp. P3” (Molecules, 2021).

Values joined by “and” are separate entries in the source; they are usually repeats but may differ in a detail not shown here. Equal entries are not always repeated.

Assay [1] concerns MAO P3. As to the kind of experiment: Initial oxidation screening: bioconversion of amine substrates by cell-free extract, GC-MS. It is filed as biochemical, Pseudogymnoascus sp. P3. As to conditions: 10 mM substrate, 10 mM potassium phosphate buffer pH 7.2, cell-free intracellular extract of P3 strain, 4 h at 30 °C; relative to compound 9 = 100%. The procedure:
(§1) Substrate specificity of MAO P3 was examined towards sixteen amine substrates (listed in Table 3) that differed in the number of carbons and various substitutions. Bioconversion was carried out in 5 mL glass tubes (Schott, Germany), where the total volume of the reaction was 2.5 mL and was comprised of 1 mL of MAO P3 (1 U/mL), where the cell-free extracts were used for the initial oxidation screening and the purified enzyme, for substrate specificity. An amount of 0.75 mL of a substrate (in the range of concentrations between 10 and 100 mM) was resuspended in 0.1 M potassium phosphate pH 7.2, and 0.75 mL of 10 mM potassium phosphate buffer pH 7.2. Initial oxidation screening was carried out for 4 h at 30 °C, 810 rpm. The substrate specificity was measured at 30 °C; reactions were carried out for 5 h, 810 rpm. In order to analyze the products of the bioconversion, samples were first neutralized by the addition of 0.25 mL of 1 M NaOH. An amount of 0.5 mL of dichloromethane was added to samples and incubated at room temperature with shaking for 1 min. The samples were centrifuged for 5 min, 5000 rpm, 4 °C. The organic phase was collected for the gas chromatography-mass spectrometry (GC-MS) analysis. The Km values were calculated based on […] curves (see the Supplementary Materials).
Samples were injected with the GerstelMultiPurpose sampler (MPS 2). […] Helium was used as a carrier gas with a flow rate of 1.5 mL/min. The injector temperature was held at 250 °C. The oven temperature was initially held at 40 °C for 2 min, ramped up to 200 °C by 10 °C/min; the total run time was 20 min. The detector was operated in EI mode with the transfer line maintained at 280 °C. All substrates were purchased from MerckMillipore, USA, and quantified by GC analysis based on their peak areas and calibration curves prepared for each individual. GC-MS spectra are presented in the Supplementary Materials.

Assay [2] has as its system MAO P3. Description: Substrate specificity (Vmax, Km) of purified MAO P3, GC-MS. As to conditions: purified MAO P3 1 U/mL, 0.1 M potassium phosphate buffer pH 7.2, 30 °C. It is filed as biochemical, Pseudogymnoascus sp. P3. On the procedure:
as §1
GC-MS analyses were carried out on a Pegasus 4D (LECO, USA) apparatus, equipped with an Agilent 6890N gas chromatograph coupled with a time-of-flight mass spectrometer (LECO, Saint Joseph, MI, USA). Samples were injected with the GerstelMultiPurpose sampler (MPS 2). The GC was fitted with a BPX5 capillary column of 30 m × 0.25 mm × 0.25 µm (SGE). Helium was used as a carrier gas with a flow rate of 1.5 mL/min. The injector temperature was held at 250 °C. The oven temperature was initially held at 40 °C for 2 min, ramped up to 200 °C by 10 °C/min; the total run time was 20 min. The detector was operated in EI mode with the transfer line maintained at 280 °C. All substrates were purchased from MerckMillipore, USA, and quantified by GC analysis based on their peak areas and calibration curves prepared for each individual. GC-MS spectra are presented in the Supplementary Materials.
Method S3. Determination of Km and Vmax values based on Lineweaver-Burk curves
The double-reciprocal curve was create based on the inverse initial velocity as a function of the inverse substrate
concentration. Curves were created for each amine substrate (Fig. S2), based on the results of GC-MS analysis (Paragraph
Figure S4. The double-reciprocal curves for MAO P3 amines substrates: A. 3-azabicyclo[3.3.0]octane;
B. hexamethyleneimine; C. 6,6-dimethyl-3-azabicyclohexane; D. cyclopentylamine; E. α-methylbenzylamine;
F. pyrrolidine; G. sec-butylamine; H. indoline.
(1 picture or pasted object on this page, not shown here)

Assay [3] concerns native MAO N. The note with it: cited from earlier work.
The subject of assay [4] is MAO N (N338S, M348K). On the set-up: method as in PMID 12207381. The note with it: MAO N with two point mutations (N338S, M348K); cited from earlier work.

Consider `CC(N)c1ccccc1` (stereo not drawn) [Substrate 5, α-methylbenzylamine], for which, in assay [1], the “Rate of Oxidation” value is given as 41%. In addition, in assay [2], the Km was 4.1 mM and 4.13 mM; the Vmax is 0.27 mM/h. Further, the catalytic constant (kcat) in assay [3] was 0.00283 s⁻¹. Besides, the Michaelis-Menten constant (Km) in assay [4] is 0.4 mM.

The Km is the substrate concentration at which the rate is half of its maximum. Broadly, the Vmax is the top rate of the reaction or transport when substrate is in excess. One may read the kcat as the number of substrate molecules converted per active site and unit of time at saturation.
